Reference: US6610689B2, “HIV protease inhibitors based on amino acid derivatives” (priority 2001, dated 2003)
Counter-ions that a name gives are not always drawn. Like-named read-outs stand apart in the source and are kept apart here.

Molecular target: T1, HIV protease (Human immunodeficiency virus type 1 group M subtype B, UniProt P04585)
T1 construct: A third viral enzyme known as protease then cleaves the polyproteins
Experiment: Enzymatic Assay for Determining the Inhibition Constant (Ki) of Synthetic Compounds Targeting the HIV Protease (fluorometric FRET assay)
Format: biochemical
Outline: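 Ki obtained via the Henderson equation from enzyme velocities with and without compound, accounting for substrate concentration and Km. Activity followed by FRET fluorescence from cleavage of a substrate flanked by EDANS donor and DABCYL acceptor.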

[1] = Anti-protease activity of Ne-amino acid substituted L-lysine derivatives and analogs of formula I, read-out: Ki
[2] = Table 1, compounds of formula I, read-out: Ki (anti-protease activity)

Row | Compound | Ki [nM] | further results
1 | Cc1ccc(S(=O)(=O)N(CC(C)C)[C@H](CO)CCCCNC(=O)[C@H](Cc2ccc(C(C)(C)C)cc2)NC(=O)OC(C)(C)C)cc1 [Example 142, (2S,2′S) 2-N-Isobutyl-2-N-(4-methylbenzenesulfonyl)-6-N-(N′α-tert-butoxycarbonyl-S-4-tert-butylphenylalanyl)-2,6-diaminohexanol] | 93 | –
2 | COc1ccc(S(=O)(=O)N(CC(C)C)[C@H](CO)CCCCNC(=O)[C@H](Cc2c[nH]c3ccccc23)NC(C)=O)cc1 [Example 172, (2S,2′S) 2-N-Isobutyl-2-N-(4-methoxybenzenesulfonyl)-6-N-(N′α-acetyl-S-tryptophanyl)-2,6-diaminohexanol] | > 300 | –
3 | Cc1ccc(CSC[C@H](NC(=O)OC(C)(C)C)C(=O)NCCCC[C@@H](C(=O)O)N(CC(C)C)S(=O)(=O)c2ccc(C)cc2)cc1 [Example 83, Nα-Isobutyl-Nα-(4-methylbenzenesulfonyl)-Nε-[N′α-tert-butoxycarbonyl-S-(4-methylbenzyl)-L-cysteinyl]-L-lysine] | – | Ki [1]: 62 nM
4 | Cc1ccc(S(=O)(=O)N(CC(C)C)[C@@H](CCCCNC(=O)[C@H](Cc2ccccc2)NS(=O)(=O)c2ccc(Cl)cc2)C(=O)O)cc1 [Example 9, Nα-Isobutyl-Nα-(4-methylbenzenesulfonyl)-Nε-[N′α-(4-chlorobenzenesulfonyl)-L-phenylalanyl]-L-lysine] | 6.8 | –
5 | Cc1ccc(S(=O)(=O)N(CC(C)C)[C@@H](CCCCNC(=O)[C@H](Cc2ccccc2)NS(=O)(=O)c2ccccc2)C(=O)O)cc1 [Example 8, Nα-Isobutyl-Nα-(4-methylbenzenesulfonyl)-Nε-(N′α-benzenesulfonyl-L-phenylalanyl)-L-lysine] | 1.9 | –
6 | Cc1ccc(S(=O)(=O)N(CC(C)C)[C@@H](CCCCNC(=O)[C@H](CC(N)=O)NC(=O)c2ccccc2)C(=O)O)cc1 [Example 63, Nα-Isobutyl-Nα-(4-methylbenzenesulfonyl)-Nε-(N′α-benzoyl-L-asparagyl)-L-lysine] | 193 | –
7 | Cc1ccc(S(=O)(=O)N(CC(C)C)[C@H](CO)CCCCNC(=O)[C@H](Cc2ccccc2)NS(=O)(=O)c2ccc(C(F)(F)F)cc2)cc1 [Example 127, (2S,2′S) 2-N-Isobutyl-2-N-(4-methylbenzenesulfonyl)-6-N-[N′α-(4-trifluoromethylbenzenesulfonyl)-S-phenylalanyl]-2,6-diaminohexanol] | 164 | –
8 | Cc1ccc(S(=O)(=O)N(CC(C)C)[C@@H](CCCCNC(=O)[C@@H](N)Cc2cn(Cc3ccccc3)cn2)C(=O)O)cc1 [Example 92, Nα-Isobutyl-Nα-(4-methylbenzenesulfonyl)-Nε-(Nτ-benzyl-L-histidinyl)-L-lysine] | > 300 | –
9 | Cc1ccc(S(=O)(=O)N(CC(C)C)[C@@H](CCCCNC(=O)[C@H](Cc2c[nH]c3ccccc23)NC(=O)C(C)(C)C)C(=O)O)cc1 [Example 100, Nα-Isobutyl-Nα-(4-methylbenzenesulfonyl)-Nε-(N′α-pivaloyl-L-tryptophanyl)-L-lysine] | 0.388 | –
10 | COC(=O)N[C@@H](Cc1c[nH]c2ccccc12)C(=O)NCCCC[C@@H](CO)N(CC(C)C)S(=O)(=O)c1ccc(C)cc1 [Example 190, (2S,2′S) 2-N-Isobutyl-2-N-(4-methylbenzenesulfonyl)-6-N-(N′α-methoxycarbonyl-S-tryptophanyl)-2,6-diaminohexanol] | 2.2 | –
11 | Cc1ccc(S(=O)(=O)N[C@@H](Cc2ccccc2)C(=O)NCCC[C@@H](C(=O)O)N(CC(C)C)S(=O)(=O)c2ccc(C)cc2)cc1 [Example 154, Nα-Isobutyl-Nα-(4-methylbenzenesulfonyl)-Nε-[N′α-(4-methylbenzenesulfonyl)-L-phenylalanyl]-L-ornithine] | > 300 | –
12 | Cc1ccc(S(=O)(=O)N(CC(C)C)[C@H](CO)CCCCNC(=O)[C@@H](N)Cc2c[nH]c3ccccc23)cc1 [Example 183, (2S,2′S) 2-N-Isobutyl-2-N-(4-methylbenzenesulfonyl)-6-N-(S-tryptophanyl)-2,6-diaminohexanol Trifluoroacetic Acid Salt] | – | Ki [2]: 4.4 nM
13 | COc1ccc(CC(=O)N[C@@H](Cc2ccccc2)C(=O)NCCCC[C@@H](C(=O)O)N(CC(C)C)S(=O)(=O)c2ccc(N)cc2)cc1 [Example 163, Nα-(4-Aminobenzenesulfonyl)-Nα-isobutyl-Nε-[N′α-(4-methoxyphenylacetyl)-L-phenylalanyl]-L-lysine] | 0.27 | –
14 | Cc1ccc(S(=O)(=O)N(CC(C)C)[C@@H](CCCCNC(=O)CNc2cnc3ccccc3c2)C(=O)O)cc1 [Example 113, Nα-Isobutyl-Nα-(4-methylbenzenesulfonyl)-Nε-[N′α-(3-quinolyl)glycyl]-L-lysine] | 12 | –
15 | Cc1ccc(S(=O)(=O)N[C@@H](Cc2ccccc2)C(=O)NCCCC[C@H](C(=O)O)N(CC(C)C)S(=O)(=O)c2ccc(C)cc2)cc1 [Example 67, Nα-Isobutyl-Nα-(4-methylbenzenesulfonyl)-Nε-[N′α-(4-methylbenzenesulfonyl)-L-phenylalanyl]-D-lysine] | > 300 | –
16 | Cc1ccc(S(=O)(=O)N[C@@H](Cc2cccs2)C(=O)NCCCC[C@@H](C(=O)O)N(CC(C)C)S(=O)(=O)c2ccc(C)cc2)cc1 [Example 35, Nα-Isobutyl-Nα-(4-methylbenzenesulfonyl)-Nε-[N′α-(4-methylbenzenesulfonyl)-L-2-thiophenylalanyl]-L-lysine] | 21 | –
17 | Cc1ccc(S(=O)(=O)N[C@@H](Cc2ccccc2)C(=O)NCCCC[C@@H](C(=O)O)N(CC(C)C)S(=O)(=O)c2cccs2)cc1 [Example 54, Nα-Isobutyl-Nα-(2-thiophenesulfonyl)-Nε-[N′α-(4-methylbenzenesulfonyl)-L-phenylalanyl]-L-lysine] | 17 | –
18 | COc1ccc(CC(=O)N[C@@H](Cc2ccccc2)C(=O)NCCCC[C@@H](C(=O)O)N(CC(C)C)S(=O)(=O)c2ccc(C)cc2)cc1 [Example 132, Nα-Isobutyl-Nα-(4-methylbenzenesulfonyl)-Nε-[N′α-(4-methoxyphenylacetyl)-L-phenylalanyl]-L-lysine] | 0.257 | –
19 | COc1ccc(CN(CC(=O)NCCCC[C@@H](CO)N(CC(C)C)S(=O)(=O)c2ccc(N)cc2)c2ccccc2)cc1 [Example 176, (2S) 2-N-(4-Aminobenzenesulfonyl)-2-N-isobutyl-6-N-[N′α-(4-methoxybenzyl)-N′α-phenylglycyl]-2,6-diaminohexanol] | 2.4 | –
20 | Nα-Isobutyl-Nα-(4-methylbenzenesulfonyl)-Nε-[N′α-(4-methylbenzenesulfonyl)-L-phenylalanyl-N-cyanoamidine]-L-lysine [Example 98] | – | Ki [1]: 5.1 nM
21 | CC(=O)Nc1ccc(S(=O)(=O)N[C@@H](Cc2ccccc2)C(=O)NCCCC[C@@H](C(=O)O)N(CC(C)C)S(=O)(=O)c2ccc([N+](=O)[O-])cc2)cc1 [Example 28, Nα-Isobutyl-Nα-(4-nitrobenzenesulfonyl)-Nε-[N′α-(4-acetamidobenzenesulfonyl)-L-phenylalanyl]-L-lysine] | 9.3 | –
22 | Cc1ccc(S(=O)(=O)N(CC(C)C)[C@H](CO)CCCCNC(=O)CN(Cc2ccccc2)c2ccccc2)cc1 [Example 156, (2S) 2-N-Isobutyl-2-N-(4-methylbenzenesulfonyl)-6-N-(N′α-benzyl-N′α-phenylglycyl)-2,6-diaminohexanol] | 7.6 | –
23 | Cc1ccc(S(=O)(=O)N(CC(C)C)[C@H](CO)CCCCNC(=O)[C@H](Cc2c(F)c(F)c(F)c(F)c2F)NC(=O)OC(C)(C)C)cc1 [Example 143, (2S,2′S) 2-N-Isobutyl-2-N-(4-methylbenzenesulfonyl)-6-N-(N′α-tert-butoxycarbonyl-S-pentafluorophenylalanyl)-2,6-diaminohexanol] | > 300 | –
24 | CC(=O)N[C@@H](Cc1c[nH]c2ccccc12)C(=O)NCCCC[C@@H](C(=O)O)N(CC(C)C)S(=O)(=O)c1ccc(C)cc1 [Example 99, Nα-Isobutyl-Nα-(4-methylbenzenesulfonyl)-Nε-(N′α-acetyl-L-tryptophanyl)-L-lysine] | 0.438 | –
25 | Cc1ccc(S(=O)(=O)N(CC(C)C)[C@H](CO)CCCCNC(=O)[C@H](Cc2ccncc2)NC(=O)OC(C)(C)C)cc1 [Example 136, (2S,2′S) 2-N-Isobutyl-2-N-(4-methylbenzenesulfonyl)-6-N-(N′α-tert-butoxycarbonyl-S-4-pyridylalanyl)-2,6-diaminohexanol] | – | Ki [2]: 110 nM
26 | Cc1ccc(S(=O)(=O)N[C@@H](Cc2ccccc2)C(=O)NCCCC[C@@H](C(=O)O)N(CC(C)C)S(=O)(=O)c2ccc(N)cc2)cc1 [Example 201, Nα-(4-Aminobenzenesulfonyl)-Nα-isobutyl-Nε-[N′α-(4-methylbenzenesulfonyl)-L-phenylalanyl]-L-lysine] | 4.1 | –
27 | CC(=O)Nc1ccc(S(=O)(=O)N[C@@H](Cc2ccccc2)C(=O)NCCCC[C@@H](C(=O)O)N(CC(C)C)S(=O)(=O)c2ccc(N)cc2)cc1 [Example 56, Nα-(4-Aminobenzenesulfonyl)-Nα-isobutyl-Nε-[N′α-(4-acetylaminobenzenesulfonyl)-L-phenylalanyl]-L-lysine] | 1.9 | –
28 | Cc1ccc(S(=O)(=O)N(CC(C)C)[C@@H](CCCCNC(=O)[C@@H](N)Cc2ccc(OCc3ccccc3)cc2)C(=O)O)cc1 [Example 94, Nα-Isobutyl-Nα-(4-methylbenzenesulfonyl)-Nε-(O-benzyl-L-tyrosyl)-L-lysine] | 177 | –
29 | COc1ccc(S(=O)(=O)N[C@@H](Cc2ccccc2)C(=O)NCCCC[C@@H](CO)N(CC(C)C)S(=O)(=O)c2ccc(C)cc2)cc1 [Example 126, (2S,2′S) 2-N-Isobutyl-2-N-(4-methylbenzenesulfonyl)-6-N-[N′α-(4-methoxybenzenesulfonyl)-S-phenylalanyl]-2,6-diaminohexanol] | 19 | –
30 | Cc1ccc(S(=O)(=O)N(CC(C)C)[C@@H](CCCCNC(=O)[C@@H]2C[C@@H](O)CN2S(=O)(=O)c2ccccc2)C(=O)O)cc1 (relative stereo) [Example 17, Nα-Isobutyl-Nα-(4-methylbenzenesulfonyl)-Nε-[N′α-(benzenesulfonyl)-4-trans-hydroxy-L-prolyl]-L-lysine] | – | Ki (Anti-protease activity, read-out: Ki): 55 nM
